The term IC50 denotes the concentration needed to halve the response being measured. A word on the Km: it is the substrate concentration at which the rate is half of its maximum.

The test system of series [1] is human telomerase. In words: TRAPeze telomerase assay, HME50-5 cell lysate preincubated with PNA (PNA scanning). As to conditions: 25° C., 30 min preincubation. The series is classed as biochemical.
Procedure: The source of telomerase was human immortal primary breast epithelial cell line (HME50-5). Cultured cells (10^5 -10^6) were lysed as recommended in the protocol supplied by Oncor. Cell lysates containing 200 cell equivalents were preincubated at 25° C. for 30 minutes with PNA (0 to 100 μM, diluted in 10 mM Tris pH 8.3 and 10 μg ml^-1 bovine serum albumin (BSA)). PNAs sometime aggregated upon prolonged storage, so PNA stocks were briefly heated to 55° C. prior to addition to assay mixtures to ensure reproducible inhibition. Following preincubation, TRAPeze reaction mixture (20 mM Tris-HCl, pH 8.3, 1.5 mM MgCl2, 63 mM KCl, 0.05% Tween 20, 1 mM EGTA, and 0.01% BSA, 50 μM dNTPs, and primer mix supplied in the kit) was added directly to the mixture of PNA and cell extract. This reaction was incubated at 25° C. for 30 minutes to allow telomerase to elongate the TS primer. […] The tubes were transferred to a PCR thermocycler, and a two-step cycle (30 sec 94° C. and 30 sec 60° C.) was performed 27 times. Samples were analyzed using nondenaturing polyacrylamide gel electrophoresis.
Telomerase products and an internal PCR control were quantitated by phosphorimager analysis (Molecular Dynamics). The lanes were divided into one region encompassing the telomerase products and another including the internal standard signal. The radioisotope density was integrated for each area, and the ratio of telomerase product to internal standard was determined. This value was normalized to a positive control (no PNA added) where the ratio of telomerase products to internal standard was assigned 100% activity. The extent inhibition was plotted against the final PNA concentration used in the preincubation reaction, and these graphs were used to estimate the IC50 values.
These PNAs were incubated with telomerase-containing cell extracts derived from a human immortal primary breast epithelial cell line (HME50-5) and assayed their influence on telomerase activity using the telomere repeat amplification protocol (TRAP) (Holt et al., supra).
The subject of series [2] is complementary DNA oligonucleotides. In words: Melting temperature of PNA:DNA duplexes, absorbance at 260 nm. The class given is physicochemical. As to conditions: PNA with complementary DNA, 20 μM each, 1.0 M phosphate pH 7.6. As for the experimental part: Determinations were done in a volume of 0.5 mL in a capped cuvette. […] Absorbance was recorded from 25° C. to 90° C. in 4° C. or 5° C. increments using a 2 minute equilibration time between each measurement. DNA oligonucleotides used for measuring Tm values, and their complementary PNAs were as follows; [NT] […] ID NO:31) ([…] ID NO:32) (PNAs 7, 17). Melting temperatures were measured (Tm) of duplexes between PNAs and their DNA complements to ensure that the PNAs used in these studies could form duplexes with complementary sequences at the assay temperature of 25° C. DNA oligonucleotides were used because employment of DNA rather than RNA facilitated analysis of the large number of PNAs that required assay. Comparison to RNA:PNA melting temperatures is justified because Tm 's for PNA:DNA and PNA:RNA hybrids are similar.

Series [3] concerns human telomerase. Description: Km app of telomerase for TS primer (TRAP assay with varied TS primer). The series is classed as biochemical. As to conditions: TS primer 0 to 60 nM, 30 min at 25° C.; read-out: apparent binding constant, Km app, of telomerase for TS primer. The method, then: Telomerase assays were performed essentially as described above with slight modifications. Both the TS and CX primers (0.1 μg) were placed below the wax barrier and the concentration of TS primer was varied from 0 nM to 60 nM, above the wax barrier, in the reaction mixture. The reaction was allowed to proceed for 30 minutes at 25° C. followed by PCR as described. The products were quantitated as described with telomerase activity relative to control plotted versus the TS primer concentration.
To put the efficiency of inhibition into context, the affinity of the TS primer for telomerase was determined. Primer affinity of telomerase was determined by monitoring the level of telomerase activity as a function of concentration of the TS primer. The TS primer is complementary to only three bases of the RNA template of the hTR, and was not initially expected to bind tightly to telomerase. The TRAP assay was performed as described, except that the concentration of the TS primer above the wax barrier was varied from 0 to 60 nM. The concentration of TS primer below the wax barrier was varied to keep the total concentration constant.

Like-named read-outs stand apart in the source and are kept apart here.

As for PNA 4: PNA, sequence GGGTTAGACAA, the IC50 was determined as 0.01 µM in series [1] (read-out: IC50 (μM), Table 2) and 0.01 µM in series [1] (read-out: IC50 for inhibition of telomerase (text)). The “Tm ° C., Table 2” value was found to be 67 °C in series [2] and 71 °C in series [2] (listed as 4).

As for “PNA 15: PNA, sequence GCCCTTCTCAG (all peptide nucleic acid (PNA))”, the 50% inhibitory concentration (IC50) in series [1] (read-out: IC50 (μM), Table 2) is 0.5 µM. Moreover, the “Tm ° C., Table 2” value in series [2] turned out to be 56 °C.

On to “TS primer: oligonucleotide primer that can be extended by telomerase, 5'-AATCCGTCGAGCAGAGTT-3' (further chemistry not given here)”, for which, in series [3], the Km was 8 nM.
